# Measurements from ChEMBL document CHEMBL1136509, “Structure-activity relationships of novel anti-malarial agents: part 5. N-(4-acylamino-3-benzoylphenyl)-[5-(4-nitrophenyl)-2-furyl]acrylic acid amides” (Bioorg Med Chem Lett, 2003).
# System: Plasmodium falciparum
# Experiment: Inhibitory activity against Plasmodium falciparum Dd2 in erythrocytes by semiautomated micro dilution
# Format: functional, organism-based
row,SMILES,IC50 [nM]
1,O=C(/C=C/c1ccc(-c2ccc([N+](=O)[O-])cc2)o1)Nc1ccc(NC(=O)Cc2ccccc2C(F)(F)F)c(C(=O)c2ccccc2)c1,1000
2,O=C(/C=C/c1ccc(-c2ccc([N+](=O)[O-])cc2)o1)Nc1ccc(NC(=O)Cc2ccccc2Br)c(C(=O)c2ccccc2)c1,1000
3,O=C(/C=C/c1ccc(-c2ccc([N+](=O)[O-])cc2)o1)Nc1ccc(NC(=O)c2ccc(Cl)cc2)c(C(=O)c2ccccc2)c1,2500
4,O=C(/C=C/c1ccc(-c2ccc([N+](=O)[O-])cc2)o1)Nc1ccc(NC(=O)Cc2ccc3ccccc3c2)c(C(=O)c2ccccc2)c1,210
5,Cc1cccc(CC(=O)Nc2ccc(NC(=O)/C=C/c3ccc(-c4ccc([N+](=O)[O-])cc4)o3)cc2C(=O)c2ccccc2)c1,150
6,Cc1ccccc1CC(=O)Nc1ccc(NC(=O)/C=C/c2ccc(-c3ccc([N+](=O)[O-])cc3)o2)cc1C(=O)c1ccccc1,650
7,O=C(/C=C/c1ccc(-c2ccc([N+](=O)[O-])cc2)o1)Nc1ccc(NC(=O)c2cccc3ccccc23)c(C(=O)c2ccccc2)c1,770
8,O=C(/C=C/c1ccc(-c2ccc([N+](=O)[O-])cc2)o1)Nc1ccc(NC(=O)Cc2ccc(Cl)cc2)c(C(=O)c2ccccc2)c1,64
9,O=C(/C=C/c1ccc(-c2ccc([N+](=O)[O-])cc2)o1)Nc1ccc(NC(=O)Cc2ccc(-c3ccccc3)cc2)c(C(=O)c2ccccc2)c1,1000
10,O=C(/C=C/c1ccc(-c2ccc([N+](=O)[O-])cc2)o1)Nc1ccc(NC(=O)Cc2ccccc2)c(C(=O)c2ccccc2)c1,270
11,COc1ccc(CC(=O)Nc2ccc(NC(=O)/C=C/c3ccc(-c4ccc([N+](=O)[O-])cc4)o3)cc2C(=O)c2ccccc2)cc1,320
12,O=C(/C=C/c1ccc(-c2ccc([N+](=O)[O-])cc2)o1)Nc1ccc(NC(=O)Cc2ccc(C(F)(F)F)cc2)c(C(=O)c2ccccc2)c1,47
13,O=C(/C=C/c1ccc(-c2ccc([N+](=O)[O-])cc2)o1)Nc1ccc(NC(=O)C(c2ccccc2)c2ccccc2)c(C(=O)c2ccccc2)c1,5500
14,O=C(/C=C/c1ccc(-c2ccc([N+](=O)[O-])cc2)o1)Nc1ccc(NC(=O)Cc2cccc3ccccc23)c(C(=O)c2ccccc2)c1,250
15,O=C(/C=C/c1ccc(-c2ccc([N+](=O)[O-])cc2)o1)Nc1ccc(NC(=O)Cc2ccc(Br)cc2)c(C(=O)c2ccccc2)c1,70
16,O=C(/C=C/c1ccc(-c2ccc([N+](=O)[O-])cc2)o1)Nc1ccc(NC(=O)Cc2ccc([N+](=O)[O-])cc2)c(C(=O)c2ccccc2)c1,1400
17,O=C(/C=C/c1ccc(-c2ccc([N+](=O)[O-])cc2)o1)Nc1ccc(NC(=O)c2ccccc2)c(C(=O)c2ccccc2)c1,3000
18,CC(C(=O)Nc1ccc(NC(=O)/C=C/c2ccc(-c3ccc([N+](=O)[O-])cc3)o2)cc1C(=O)c1ccccc1)c1ccccc1 (stereo not given),500
19,O=C(/C=C/c1ccc(-c2ccc([N+](=O)[O-])cc2)o1)Nc1ccc(NC(=O)c2ccc3ccccc3c2)c(C(=O)c2ccccc2)c1,2500
20,O=C(/C=C/c1ccc(-c2ccc([N+](=O)[O-])cc2)o1)Nc1ccc(NC(=O)Cc2ccc(F)cc2)c(C(=O)c2ccccc2)c1,230
